Test results taken from patent publication US20260256799A1, “INHIBITORS FOR TREATING SOLID TUMOURS” (UNIVERSITY OF SOUTHAMPTON, priority 2023, published 2026).

Key:
[1] = system: MC38 cells + TGF-β1-treated murine colon fibroblasts (myoMCF); assay: Isograft model MC38 + myoMCF (myoCAF-high tumours); format: in vivo, C57/BL6 female mice; details: AZD0156, myoCAF-high MC38 tumours
Description: SMA immunohistochemistry (IHC; Sigma Aldrich; A2547) on FFPE tissues was performed as previously: in brief, tissues were fixed in 4% paraformaldehyde and embedded in paraffin. 4 μm sections were de-paraffinized, rehydrated and antigen retrieved for 20 minutes at 97° C. using a predefined program on the Dako PT links. Antigen retrieval was performed using Envision FLEX High pH. Endogenous peroxidase activity was blocked using 3% hydrogen peroxide. Mouse Ig blocking reagent (M.O.M kit vector labs) was applied for 1 hour. Primary antibody incubation (1:100) in M.O.M diluent (vector labs) was for 20 minutes. […] Images were captured using an Olympus CKX41 microscope with Cell B imaging software. % area of staining was calculated using Fiji software (java) by running the ‘color deconvolution’ tool analyzing H DAB. […] The mean was calculated from 2 or 3 mice/experimental group.
Quantification of SMA staining in mouse tumours was carried out using color thresholding and deconvolution in Fiji. […]
CD8 and CD4 IHC was performed on frozen tissue embedded in OCT using [YTS169 (CD8; in house) and RM4-5 (CD4; BD) (FIG. 6c & FIG. 12e). […] CD8 and CD4 T-cells were counted from ten randomly selected fields of view (FoV) from the tumour by a consultant pathologist (GJT). […]

[2] = monotherapy, dose escalation phase 1; cited from earlier work
[3] = system: TC-1 cells + TGF-β1-treated murine lung fibroblasts (myoMLF); assay: Isograft model TC-1 + myoMLF (myoCAF-high tumours); format: in vivo, C57/BL6 female mice
Description: SMA immunohistochemistry (IHC; Sigma Aldrich; A2547) on FFPE tissues was performed as previously: in brief, tissues were fixed in 4% paraformaldehyde and embedded in paraffin. 4 μm sections were de-paraffinized, rehydrated and antigen retrieved for 20 minutes at 97° C. using a predefined program on the Dako PT links. Antigen retrieval was performed using Envision FLEX High pH. Endogenous peroxidase activity was blocked using 3% hydrogen peroxide. Mouse Ig blocking reagent (M.O.M kit vector labs) was applied for 1 hour. Primary antibody incubation (1:100) in M.O.M diluent (vector labs) was for 20 minutes. For secondary amplification, M.O.M. Biotinylated anti-Mouse IgG reagentwas applied for 10 minutes followed by Vectorstain elite ABC reagent (vector labs). Chromogenic visualization was completed with 2×5 minute washes in DAB and counterstaining with Haematoxylin. For IHC of CD8 (in house; YTS169), CD4 (BD; RM4-5) and F480 (AbD Serotec; CI:A3-1) tissues were frozen in OCT. 8 μm sections were fixed in 100% acetone for 10 minutes. Endogenous peroxidase activity was blocked using neat peroxidase suppressor (Peirce) for 15 minutes. Sections were blocked for 30 minutes with 2.5% goat serum. Primary antibodies were applied for 2 hours −CD8 (1:800), CD4 (1:100), F480 (1:100). Appropriate species HRP polymer (ImmunoPress, Vector Laboratories) was applied to sections for 30 minutes. Vector NovaRED chromagen substrate (Vector Laboratories) was applied for 2-10 minutes then counterstained with haematoxylin (Vector Laboratories) for 30 seconds. Images were captured using an Olympus CKX41 microscope with Cell B imaging software. % area of staining was calculated using Fiji software (java) by running the ‘color deconvolution’ tool analyzing H DAB. The image was appropriately thresholded based on the ‘color 2’ image. The same thresholding was applied to all images from the same experiment. Regions of interest (margin & core) were confirmed by a pathologist, and each point plotted represents the mean of a minimum of 4 independent fields of view (field diameter=2 mm) from margin and core (one section per mouse). The mean was calculated from 2 or 3 mice/experimental group.
Quantification of SMA staining in mouse tumours was carried out using color thresholding and deconvolution in Fiji. At least three independent fields of view (FoV) of at least three tumours were randomly selected by a consultant pathologist (GJT) to generate a mean value per tumour representing the SMA-positive area %, which was compared between treatment groups.
CD8 and CD4 IHC was performed on frozen tissue embedded in OCT using [YTS169 (CD8; in house) and RM4-5 (CD4; BD) (FIG. 6c & FIG. 12e). 8 μm sections were fixed in 100% acetone for 10 minutes and stained as previously shown. CD8 and CD4 IHC on FFPE was performed using 98941S and 25229S respectively (Cell Signaling; FIG. 6a,g,k,o and FIG. 12a-c,g & 13m,o) using the Leica Bond system according to the manufacturer's instructions (Protocol F mouse 4; HIER 20 MINUTES ER1; Temperature-Ambient; 1:100 dilution; 20 min of NGS blocking incubation). CD8 and CD4 T-cells were counted from ten randomly selected fields of view (FoV) from the tumour by a consultant pathologist (GJT).
All mouse experiments were performed according to national and international guidelines and were approved by the authors' institutional review board and the UK Home Office. Xenograft model: 6.7×10^5 PT cells±2×10^6 HFFF2 cells were resuspended in 100 μl PBS and injected s.c. in the flank of partially immunocompromised, male RAG1−/−C57BL/6 mice (3-5 months old). Isograft models: 0.5×10^5 TC-1 cells±3×10^5 TGF-β1-treated murine lung fibroblasts (myoMLFs) or 1×10^5 MC38 cells±5×10^5 TGF-β1-treated murine colon fibroblasts (myoMCFs) were resuspended in 100 μl PBS and injected s.c. in the flank of C57/BL6 female mice (6-8 weeks old). 5-8 animals for both models were used per group. […]

[4] = AZD0156 20 mg/Kg oral gavage daily
[5] = AZD0156, myoCAF-high TC-1 tumours

CN(C)CCCOc1ccc(-c2ccc3ncc4c(c3c2)n(C2CCOCC2)c(=O)n4C)cn1 [AZD0156]
CD4 T-cell infiltration (IHC) [1]: unaffected | location of CD8 T-cells, tumour periphery to tumour core (IHC) [1]: significant relocation | adverse effects [2]: not yet reporting to be associated with adverse effects | myofibroblast accumulation (SMA IHC) [3, 4]: suppressed | tumour growth [3, 4]: slowed | CD4 T-cell infiltration (IHC) [3, 5]: unaffected | location of CD8 T-cells, tumour periphery to tumour core (IHC) [3, 5]: significant relocation | CD8 T-cell phenotype/function (flow cytometry) ([3]; AZD0156, myoCAF-high tumours): did not affect | overall survival ([3]; AZD0156 daily at day 15-28): improved | intratumoural myoCAF accumulation ([3]; AZD0156 monotherapy in the RAH vaccine experiment): effective in reducing
